Each structure is given as a SMILES string. Structures can show the parent of a compound that is named as a salt.

This assay deals with human recombinant ATX (Homo sapiens (Human), UniProt Q13822). The experiment in a line: Autotaxin (ATX) activity Quanta Red assay. The class given is biochemical. Conditions: 15 μM Rac-1-Palmitoyl-glycero-3-phosphocholine, 2 hours room temperature, determined in duplicate. The gist of the method:
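Human recombinant ATX (0.8 μg/mL final) in 50 mM Tris-HCl pH 8.0, 5 mM CaCl2, 4% DMSO; 15 μM rac-1-palmitoyl-glycero-3-phosphocholine with HRP/choline oxidase-coupled Quanta Red, 2 h at room temperature.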
As to `O=C(NC1CC(=O)N(c2ccc(CN3CCCCC3)cc2)C1)c1cc(CCc2ccccc2)on1` (stereo not shown) [Compound F175, N-[5-oxo-1-[4-(1-piperidylmethyl)phenyl]pyrrolidin-3-yl]-5-(2-phenylethyl)isoxazole-3-carboxamide], the IC50 (in general, the concentration needed to halve the response being measured) turned out to be 47 nM.

Consider `O=C(NC1CC(=O)N(c2ccc(CN3CCCCC3)cc2)C1)c1cc(CCc2ccccc2)[nH]n1` (stereo not shown) [Compound F204, 5-phenethyl-1H-pyrazole-3-carboxylic acid [5-oxo-1-(4-piperidin-1-ylmethyl-phenyl)-pyrrolidin-3-yl]-amide hydrochloride], for which the IC50 is 1080 nM. The result for `O=C(Nc1nnc(CCc2ccc(Cl)cc2)s1)[C@H]1CC(=O)N(c2ccc(CN3CC4(COC4)C3)cc2)C1` [Compound F213, (3S)-N-[5-[2-(4-chlorophenyl)ethyl]-1,3,4-thiadiazol-2-yl]-1-[4-(2-oxa-6-azaspiro[3.3]heptan-6-ylmethyl)phenyl]-5-oxo-pyrrolidine-3-carboxamide] reads 1 nM; that for `O=C(NC1CC(=O)N(c2ccc(CN3CCCCC3)cc2)C1)c1nnc(CCc2ccco2)s1` (stereo not shown) [Compound F195, 5-[2-(2-furyl)ethyl]-N-[5-oxo-1-[4-(1-piperidylmethyl)phenyl]pyrrolidin-3-yl]-1,3,4-thiadiazole-2-carboxamide], 766 nM. As to `O=C(Nc1nnc(CCC2CCOCC2)s1)C1CC(=O)N(c2ccc(CN3CCCCC3)cc2)C1` (stereo not shown) [Compound F189, 5-oxo-1-[4-(1-piperidylmethyl)phenyl]-N-[5-(2-tetrahydropyran-4-ylethyl)-1,3,4-thiadiazol-2-yl]pyrrolidine-3-carboxamide], the half-inhibitory concentration (IC50) came out at 487 nM. As to `O=C(Nc1nnc(CCc2ccc(Cl)cc2)s1)C1CC(=O)N(c2ccc(CN3CCC(O)CC3)cc2)C1` (stereo not shown) [Compound F102, N-[5-[2-(4-chlorophenyl)ethyl]-1,3,4-thiadiazol-2-yl]-1-[4-[(4-hydroxy-1-piperidyl)methyl]phenyl]-5-oxo-pyrrolidine-3-carboxamide], the half-inhibitory concentration (IC50) stood at 3 nM. The figure for `O=C(Nc1nnc(CCc2ccc(Cl)cc2)s1)[C@H]1CC(=O)N(c2ccc(CN3CCC4(COC4)C3)cc2)C1` [Compound F212, (3S)-N-[5-[2-(4-chlorophenyl)ethyl]-1,3,4-thiadiazol-2-yl]-1-[4-(2-oxa-7-azaspiro[3.4]octan-7-ylmethyl)phenyl]-5-oxo-pyrrolidine-3-carboxamide] is 1 nM; for `O=C(Nc1nnc(CCC2CCCC2)s1)C1CC(=O)N(c2ccc(CN3CCC(F)(F)CC3)cc2)C1` (stereo not shown) [Compound F123, N-[5-(2-cyclopentylethyl)-1,3,4-thiadiazol-2-yl]-1-[4-[(4,4-difluoro-1-piperidyl)methyl]phenyl]-5-oxo-pyrrolidine-3-carboxamide] it is 5 nM. The result for `COc1ccc(CCc2cc(NC(=O)C3CC(=O)N(c4ccc(CN5CCOCC5)cc4)C3)on2)cc1` (stereo not shown) [Compound F199, N-[3-[2-(4-methoxyphenyl)ethyl]isoxazol-5-yl]-1-[4-(morpholinomethyl)phenyl]-5-oxo-pyrrolidine-3-carboxamide] reads 293 nM; that for `O=C(Nc1nnc(CCc2ccc(Cl)cc2)s1)C1CC(=O)N(c2ccc(CN3CCCNCC3)cc2)C1` (stereo not shown) [Compound F156, 1-(4-[1,4]Diazepan-1-ylmethyl-phenyl)-5-oxo-pyrrolidine-3-carboxylic acid {5-[2-(4-chloro-phenyl)-ethyl]-[1,3,4]thiadiazol-2-yl}-amide; dihydrochloride], 14 nM. The figure for `CN1CCC(C(=O)NCc2ccc(N3CC(C(=O)Nc4nnc(CCc5ccc(Cl)cc5)s4)CC3=O)cc2)CC1` (stereo not shown) [Compound F184, 1-Methyl-piperidine-4-carboxylic acid 4-(4-{5-[2-(4-chloro-phenyl)-ethyl]-[1,3,4]thiadiazol-2-ylcarbamoyl}-2-oxo-pyrrolidin-1-yl)-benzylamide] is 45 nM.

As for `O=C(N[C@@H]1CC(=O)N(c2ccc(CN3CCOCC3)cc2)C1)c1nnc(CCc2ccc(Cl)cc2)s1` [Compound F130, 5-[2-(4-chlorophenyl)ethyl]-N-[(3R)-1-[4-(morpholinomethyl)phenyl]-5-oxo-pyrrolidine-3-yl]-1,3,4-thiadiazole-2-carboxamide], the IC50 is 2 nM. The figure for `CC1CN(Cc2ccc(N3CC(C(=O)Nc4nnc(CCc5ccc(Cl)cc5)s4)CC3=O)cc2)C[C@H](C)O1` (stereo in doubt) [Compound F125, N-[5-[2-(4-chlorophenyl)ethyl]-1,3,4-thiadiazol-2-yl]-1-[4-[[(2S,6S)-2,6-dimethylmorpholin-4-yl]methyl]phenyl]-5-oxo-pyrrolidine-3-carboxamide] is 8 nM; for `O=C(Nc1nnc(CCc2ccc(Cl)cc2)s1)C1CC(=O)N(c2ccc(CN3CCNCC3)cc2)C1` (stereo not shown) [Compound F160, 5-Oxo-1-(4-piperazin-1-ylmethyl-phenyl)-pyrrolidine-3-carboxylic acid {5-[2-(4-chloro-phenyl)-ethyl]-[1,3,4]thiadiazol-2-yl}-amide; dihydrochloride] it is 24 nM; for `O=C(Nc1ccc(CCc2ccc(F)cc2)nn1)[C@H]1CC(=O)N(c2ccc(CN3CCCCC3)cc2)C1` [Compound F178, (3S)-N-[6-[2-(4-fluorophenyl)ethyl]pyridazin-3-yl]-5-oxo-1-[4-(1-piperidylmethyl)phenyl] pyrrolidine-3-carboxamide] it is 30 nM. Take `O=C(Nc1cc(CCc2ccccc2)[nH]n1)C1CC(=O)N(c2ccc(CN3CCOCC3)cc2)C1` (stereo not shown) [Compound F179, 1-[4-(morpholinomethyl)phenyl]-5-oxo-N-[5-(2-phenylethyl)-1H-pyrazol-3-yl]pyrrolidine-3-carboxamide]: the half-maximal inhibitory concentration (IC50) turned out to be 38 nM. The figure for `CS(=O)(=O)NCc1ccc(N2C[C@H](NC(=O)c3nnc(CCc4ccc(Cl)cc4)s3)CC2=O)cc1` [Compound F214, 5-[2-(4-chlorophenyl)ethyl]-N-[(3R)-1-[4-(methanesulfonamido-methyl)phenyl]-5-oxo-pyrrolidin-3-yl]-1,3,4-thiadiazole-2-carboxamide] is 134 nM. The result for `O=C(Nc1nnc(CCC2CCCC2)s1)C1CC(=O)N(c2ccc(CN3CCC(F)CC3)cc2)C1` (stereo not shown) [Compound F113, N-[5-(2-cyclopentylethyl)-1,3,4-thiadiazol-2-yl]-1-[4-[(4-fluoro-1-piperidyl)methyl]phenyl]-5-oxo-pyrrolidine-3-carboxamide] reads 3 nM; that for `O=C(Nc1nnc(CCc2ccc(Cl)cc2)s1)[C@H]1CC(=O)N(c2ccc(CN3CCCCCC3)cc2)C1` [Compound F91, (3S)-1-[4-(azepan-1-ylmethyl)phenyl]-N-[5-[2-(4-chlorophenyl)ethyl]-1,3,4-thiadiazol-2-yl]-5-oxo-pyrrolidine-3-carboxamide], 1 nM; that for `CC(C)(O)CCNCc1ccc(N2C[C@H](NC(=O)c3nnc(CCc4ccc(Cl)cc4)s3)CC2=O)cc1` [Compound F170, 5-[2-(4-chlorophenyl)ethyl]-N-[(3R)-1-[4-[[(3-hydroxy-3-methyl-butyl)amino]methyl]phenyl]-5-oxo-pyrrolidin-3-yl]-1,3,4-thiadiazole-2-carboxamide hydrochloride], 58 nM. With `O=C(Nc1nnc(CCC2CCCCC2)s1)C1CC(=O)N(c2ccc(CN3CCCCC3)cc2)C1` (stereo not shown) [Compound F106, N-[5-(2-cyclohexylethyl)-1,3,4-thiadiazol-2-yl]-5-oxo-1-[4-(1-piperidylmethyl)phenyl] pyrrolidine-3-carboxamide], the half-inhibitory concentration (IC50) was found to be 3 nM. The figure for `O=C(N[C@@H]1CC(=O)N(c2ccc(CN3CCCCC3)cc2)C1)c1cc(CCc2ccc(Cl)cc2)on1` [Compound F143, 5-[2-(4-chlorophenyl)ethyl]-N-[(3R)-5-oxo-1-[4-(1-piperidylmethyl)phenyl]pyrrolidin-3-yl]isoxazole-3-carboxamide] is 2 nM. The figure for `O=C(Nc1nnc(CCc2ccc(Cl)cc2)s1)C1CC(=O)N(c2ccc(CN3CCOCC3)cc2)C1` (stereo not shown) [Compound F121, N-[5-[2-(4-chlorophenyl)ethyl]-1,3,4-thiadiazol-2-yl]-1-[4-(morpholinomethyl)phenyl]-5-oxo-pyrrolidine-3-carboxamide] is 4 nM; for `COc1ccc(CCc2nnc(NC(=O)C3CC(=O)N(c4ccc(CN5CCOCC5)cc4)C3)s2)cc1` (stereo not shown) [Compound F150, N-[5-[2-(4-methoxyphenyl)ethyl]-1,3,4-thiadiazol-2-yl]-1-[4-(morpholinomethyl)phenyl]-5-oxo-pyrrolidine-3-carboxamide] it is 8 nM. As to `CCN(Cc1ccc(N2CC(C(=O)Nc3nnc(CCc4ccc(Cl)cc4)s3)CC2=O)cc1)C(C)C` (stereo not shown) [Compound F127, N-[5-[2-(4-chlorophenyl)ethyl]-1,3,4-thiadiazol-2-yl]-1-[4-[[ethyl(isopropyl)amino]methyl]phenyl]-5-oxo-pyrrolidine-3-carobxamide], the IC50 was found to be 9 nM.

Regarding `O=C1CC(NCc2nnc(CCc3ccc(Cl)cc3)s2)CN1c1ccc(CN2CCOCC2)cc1` (stereo not shown) [Compound F183, 4-({5-[2-(4-Chloro-phenyl)-ethyl]-[1,3,4]thiadiazol-2-ylmethyl}-amino)-1-(4-morpholin-4-ylmethyl-phenyl)-pyrrolidin-2-one; hydrochloride], the concentration for half-maximal inhibition (IC50) is 23 nM. For `CC(C)N(C)Cc1ccc(N2CC(C(=O)Nc3nnc(CCc4ccc(Cl)cc4)s3)CC2=O)cc1` (stereo not shown) [Compound F159, N-[5-[2-(4-chlorophenyl)ethyl]-1,3,4-thiadiazol-2-yl]-1-[4-[[isopropyl (methyl)amino]methyl]phenyl]-5-oxo-pyrrolidine-3-carboxamide], the IC50 is 18 nM. Turning to `CC(C)(C)OC(=O)N1CCN(Cc2ccc(N3CC(C(=O)Nc4nnc(CCc5ccc(Cl)cc5)s4)CC3=O)cc2)CC1` (stereo not shown) [Compound F157, tert-butyl 4-[[4-[4-[[5-[2-(4-chlorophenyl)ethyl]-1,3,4-thiadiazol-2-yl]carbamoyl]-2-oxo-pyrrolidin-1-yl]phenyl]methyl] piperazine-1-carboxylate], the IC50 is 15 nM.
